Blank lines part the entries; values can stand above or below the molecule they belong to.
Columns and labels:
[1] = Tmax in male cynomolgus monkey at 75 mg/kg, po BID measured on day 8; format: ADME, organism-based, Macaca fascicularis; details: in vivo
[2] = Change in AUC(infinity) in cynomolgus monkey at 275 umol/kg, po measured after 0.083 to 48 hrs by LC-MS/MS analysis; format: ADME, organism-based, Macaca fascicularis; details: in vivo, at 275 µmol/kg, time 0.083-48 hrs
[3] = Half life in female cynomolgus monkey at 675 mg/kg, po measured on day 1; format: ADME, organism-based, Macaca fascicularis; details: in vivo
[4] = AUC (0 to 24 hrs) in female cynomolgus monkey at 150 mg/kg, po BID measured on day 8; format: ADME, organism-based, Macaca fascicularis; parameters: time < 24 hr, route oral, dose 150 mg/kg; details: in vivo
[5] = Change in Cmax in rat at 37 umol/kg, po measured upto 72 hrs by LC-MS/MS analysis; format: ADME, organism-based; details: in vivo, at 37 µmol/kg
[6] = Change in AUC(infinity) in rat at 500 umol/kg, po measured upto 72 hrs by LC-MS/MS analysis; format: ADME, organism-based; details: in vivo, at 500 µmol/kg
[7] = Half life in mouse at 1147 micromol/kg administered as single dose; format: ADME; details: in vivo, dose 1147 µmol/kg
[8] = Cmax in female cynomolgus monkey at 75 mg/kg, po BID measured on day 8; format: ADME, organism-based, Macaca fascicularis; parameters: route oral, dose 75 mg/kg; details: in vivo
[9] = Half life in mouse at 287 micromol/kg administered as single dose; format: ADME; details: in vivo, dose 287 µmol/kg
[10] = Cmax in female cynomolgus monkey at 675 mg/kg, po measured on day 1; format: ADME, organism-based, Macaca fascicularis; parameters: route oral, dose 675 mg/kg; details: in vivo
[11] = AUC (0 to 12 hrs) in po BID dosed cynomolgus monkey administered for 28 days; format: ADME, organism-based, Macaca fascicularis; parameters: route oral, time 28 day; details: in vivo
[12] = Half life in male cynomolgus monkey at 675 mg/kg, po measured on day 1; format: ADME, organism-based, Macaca fascicularis; details: in vivo
[13] = Dose normalized AUC (0 to infinity) in rat at 10 mg/kg, po measured upto 72 hrs by LC-MS/MS analysis; format: ADME, organism-based; details: in vivo
[14] = Tmax in male cynomolgus monkey at 675 mg/kg, po measured on day 1; format: ADME, organism-based, Macaca fascicularis; details: in vivo
[15] = Half life in male cynomolgus monkey at 150 mg/kg, po BID measured on day 8; format: ADME, organism-based, Macaca fascicularis; details: in vivo
[16] = AUC (0 to 24 hrs) in male cynomolgus monkey at 675 mg/kg, po measured on day 1; format: ADME, organism-based, Macaca fascicularis; parameters: time < 24 hr, route oral, dose 675 mg/kg; details: in vivo
[17] = AUC (0 to 24 hrs) in female cynomolgus monkey at 675 mg/kg, po measured on day 1; format: ADME, organism-based, Macaca fascicularis; parameters: time < 24 hr, route oral, dose 675 mg/kg; details: in vivo
[18] = Cmax in male cynomolgus monkey at 225 mg/kg, po measured on day 1; format: ADME, organism-based, Macaca fascicularis; parameters: route oral, dose 225 mg/kg; details: in vivo
[19] = Tmax in female cynomolgus monkey at 75 mg/kg, po measured on day 8; format: ADME, organism-based, Macaca fascicularis; details: in vivo
[20] = Change in normalised AUCinfinity in rat at 10 mg/kg, po measured upto 72 hrs by LC-MS/MS analysis; format: ADME, organism-based; details: in vivo
[21] = Tmax in male cynomolgus monkey at 225 mg/kg, po measured on day 1; format: ADME, organism-based, Macaca fascicularis; details: in vivo
[22] = Cmax in male cynomolgus monkey at 15 mg/kg, iv measured on day 1; format: ADME, organism-based, Macaca fascicularis; parameters: route intravenous, dose 15 mg/kg; details: in vivo
[23] = Change in Cmax in rat at 185 umol/kg, po measured upto 72 hrs by LC-MS/MS analysis; format: ADME, organism-based; details: in vivo, at 185 µmol/kg
[24] = Change in Cmax in cynomolgus monkey at 92 umol/kg, po measured after 0.083 to 48 hrs by LC-MS/MS analysis; format: ADME, organism-based, Macaca fascicularis; details: in vivo, at 92 µmol/kg, time 0.083-48 hrs
[25] = Change in Cmax in rat at 500 umol/kg, po measured upto 72 hrs by LC-MS/MS analysis; format: ADME, organism-based; details: in vivo, at 500 µmol/kg
[26] = Cmax in female cynomolgus monkey at 75 mg/kg, po measured on day 1; format: ADME, organism-based, Macaca fascicularis; parameters: route oral, dose 75 mg/kg; details: in vivo
[27] = Dose normalized Cmax in rat at 10 mg/kg, po measured upto 72 hrs by LC-MS/MS analysis; format: ADME, organism-based; details: in vivo
[28] = AUC (0 to 24 hrs) in male cynomolgus monkey at 225 mg/kg, po measured on day 1; format: ADME, organism-based, Macaca fascicularis; parameters: time < 24 hr, route oral, dose 225 mg/kg; details: male, in vivo
[29] = Half life in female cynomolgus monkey at 150 mg/kg, po measured on day 8; format: ADME, organism-based, Macaca fascicularis; details: in vivo
[30] = Change in normalised Cmax in rat at 10 mg/kg, po measured upto 72 hrs by LC-MS/MS analysis; format: ADME, organism-based; details: in vivo
[31] = Tmax in mouse at 287 micromol/kg administered as single dose; format: ADME; details: in vivo, dose 287 µmol/kg
[32] = Change in AUC (infinity) in rat at 37 umol/kg, po measured upto 72 hrs by LC-MS/MS analysis; format: ADME, organism-based; details: in vivo, at 37 µmol/kg
[33] = Cmax in female cynomolgus monkey at 15 mg/kg, iv measured on day 1; format: ADME, organism-based, Macaca fascicularis; parameters: route intravenous, dose 15 mg/kg; details: in vivo
[34] = Drug accumulation in monkey at 75 to 375 mg/kg, po BID; format: ADME, organism-based, Macaca mulatta; details: rhesus monkey, in vivo, dose 75-375 mg/kg
[35] = Change in AUC(infinity) in cynomolgus monkey at 92 umol/kg, po measured after 0.083 to 48 hrs by LC-MS/MS analysis; format: ADME, organism-based, Macaca fascicularis; details: in vivo, at 92 µmol/kg, time 0.083-48 hrs
[36] = Tmax in male cynomolgus monkey at 150 mg/kg, po BID measured on day 8; format: ADME, organism-based, Macaca fascicularis; details: in vivo
[37] = Drug accumulation in rat at 100 to 900 mg/kg, po BID; format: ADME, organism-based; details: in vivo, dose 100-900 mg/kg
[38] = AUC (0 to 24 hrs) in male cynomolgus monkey at 150 mg/kg, po BID measured on day 8; format: ADME, organism-based, Macaca fascicularis; parameters: time < 24 hr, route oral, dose 150 mg/kg; details: in vivo
[39] = Cmax in female cynomolgus monkey at 375 mg/kg, po BID measured on day 8; format: ADME, organism-based, Macaca fascicularis; parameters: route oral, dose 375 mg/kg; details: in vivo
[40] = Change in AUC(infinity) in cynomolgus monkey at 825 umol/kg, po measured after 0.083 to 48 hrs by LC-MS/MS analysis; format: ADME, organism-based, Macaca fascicularis; details: in vivo, at 825 µmol/kg, time 0.083-48 hrs
[41] = Change in Cmax in cynomolgus monkey at 825 umol/kg, po measured after 0.083 to 48 hrs by LC-MS/MS analysis; format: ADME, organism-based, Macaca fascicularis; details: in vivo, at 825 µmol/kg, time 0.083-48 hrs
[42] = AUC (0 to 24 hrs) in female cynomolgus monkey at 75 mg/kg, po measured on day 1; format: ADME, organism-based, Macaca fascicularis; parameters: time < 24 hr, route oral, dose 75 mg/kg; details: in vivo
[43] = Tmax in female cynomolgus monkey at 375 mg/kg, po BID measured on day 8; format: ADME, organism-based, Macaca fascicularis; details: in vivo
[44] = Cmax in male cynomolgus monkey at 675 mg/kg, po measured on day 1; format: ADME, organism-based, Macaca fascicularis; parameters: route oral, dose 675 mg/kg; details: in vivo
[45] = Tmax in female cynomolgus monkey at 675 mg/kg, po measured on day 1; format: ADME, organism-based, Macaca fascicularis; details: in vivo
[46] = Half life in mouse at 573 micromol/kg administered as single dose; format: ADME; details: in vivo, dose 573 µmol/kg
[47] = Change in Cmax in cynomolgus monkey at 275 umol/kg, po measured after 0.083 to 48 hrs by LC-MS/MS analysis; format: ADME, organism-based, Macaca fascicularis; details: in vivo, at 275 µmol/kg, time 0.083-48 hrs
[48] = Cmax in male cynomolgus monkey at 150 mg/kg, po BID measured on day 8; format: ADME, organism-based, Macaca fascicularis; parameters: route oral, dose 150 mg/kg; details: in vivo
[49] = Cmax in male cynomolgus monkey at 75 mg/kg, po BID measured on day 8; format: ADME, organism-based, Macaca fascicularis; parameters: route oral, dose 75 mg/kg; details: in vivo
[50] = Cmax in female cynomolgus monkey at 150 mg/kg, po measured on day 8; format: ADME, organism-based, Macaca fascicularis; parameters: route oral, dose 150 mg/kg; details: in vivo
[51] = Half life in mouse at 143 micromol/kg administered as single dose; format: ADME; details: in vivo, dose 143 µmol/kg

Tmax [1]: 1 h
Activity [2]: 0%
half-life [3]: 10.2 h
AUC at 24 h [4]: 403 µM·h
Activity [5]: 0%
Activity [6]: 0%
half-life [7]: 3.4 h
Cmax [8]: 59.3 µM
half-life [9]: 2.8 h
Cmax [10]: 387 µM
AUC at 672 h [11]: 320 µM·h
half-life [12]: 4.3 h
AUC/dose [13]: 508 µM·h
Tmax [14]: 4 h
half-life [15]: 2.8 h
AUC [16]: 4470 µM·h
AUC [17]: 6450 µM·h
Cmax [18]: 97.7 µM
Tmax [19]: 1 h
Activity [20]: 0%
Tmax [21]: 2 h
Cmax [22]: 39.5 µM
Activity [23]: 0%
Activity [24]: 0%
Activity [25]: 0%
Cmax [26]: 55 µM
Cmax/dose [27]: 17.3 µM
AUC(0-t) at 24 h [28]: 525 µM·h
half-life [29]: 2.7 h
Activity [30]: 0%
Tmax [31]: 0.6 h
Activity [32]: 0%
Cmax [33]: 43.1 µM
Drug metabolism [34]: Metabolite_Notdetected
Activity [35]: 0%
Tmax [36]: 2 h
Drug metabolism [37]: Metabolite_Notdetected
AUC at 24 h [38]: 509 µM·h
Cmax [39]: 203 µM
Activity [40]: 0%
Activity [41]: 0%
AUC(0-t) at 24 h [42]: 177 µM·h
Tmax [43]: 2.5 h
Cmax [44]: 311 µM
Tmax [45]: 2 h
half-life [46]: 3.1 h
Activity [47]: 0%
Cmax [48]: 93.4 µM
Cmax [49]: 47.3 µM
Cmax [50]: 79 µM
half-life [51]: 3 h
SMILES: Cn1cc(C[C@@H](N)C(=O)O)c2ccccc21 [INDOXIMOD]

SMILES: CCOC(=O)[C@@H](Cc1cn(C)c2ccccc12)NC(=O)[C@@H](N)CC(C)C.Cl
Tmax [1]: 1 h
Activity [2]: 518%
half-life [3]: 9.7 h
AUC at 24 h [4]: 0.057 µM·h
Activity [5]: 92%
Activity [6]: 15%
half-life [7]: 3.2 h
Cmax [8]: 0.00971 µM
half-life [9]: 2.2 h
Cmax [10]: 0.0759 µM
AUC at 672 h [11]: 320 µM·h
half-life [12]: 9.7 h
AUC/dose [13]: 888 µM·h
Tmax [14]: 2 h
half-life [15]: 8.5 h
AUC [16]: 0.966 µM·h
AUC [17]: 0.966 µM·h
Cmax [18]: 0.0126 µM
Tmax [19]: 2 h
Activity [20]: 75%
Tmax [21]: 3 h
Cmax [22]: 0.135 µM
Activity [23]: 112%
Activity [24]: 518%
Activity [25]: 5%
Cmax [26]: 0.00846 µM
Cmax/dose [27]: 16.2 µM
AUC(0-t) at 24 h [28]: 0.0602 µM·h
half-life [29]: 3 h
Activity [30]: 24%
Tmax [31]: 0.5 h
Activity [32]: 70%
Cmax [33]: 0.135 µM
Drug metabolism [34]: Metabolite_Notdetected
Activity [35]: 195%
Tmax [36]: 2 h
Drug metabolism [37]: Metabolite_Notdetected
AUC at 24 h [38]: 0.0806 µM·h
Cmax [39]: 0.403 µM
Activity [40]: 416%
Activity [41]: 230%
AUC(0-t) at 24 h [42]: 0.0287 µM·h
Tmax [43]: 2 h
Cmax [44]: 0.148 µM
Tmax [45]: 1 h
half-life [46]: 3.1 h
Activity [47]: 476%
Cmax [48]: 0.0171 µM
Cmax [49]: 0.00774 µM
Cmax [50]: 0.0105 µM
half-life [51]: 2.9 h

From ChEMBL document CHEMBL4837181 (Eur J Med Chem, 2020)
